Measured values published in publication PMC11915801, “Evolutionary trajectory of bacterial resistance to antibiotics and antimicrobial peptides in Escherichia coli” (mSystems, 2025).
Where a SMILES comes first, the peptide text is derived from it.

How the values were obtained:
[1] = test system: antibiotic- and AMP-evolved strains of MG1655; settings: 1.5% H2O2, 37°C, 1 h in the dark, CFU counting
Description: Bacterial cells were proportionally mixed with 3% hydrogen peroxide solution and incubated at 37°C for 1 h in the dark. The reaction was terminated by adding a catalase solution with a final concentration of 1,000 U/mL. After diluting the mixture to an appropriate gradient, the drops were carried out on LB agar plates, and then the agar plates were placed in a 37°C incubator overnight for colony counting.

E. coli K-12 MG1655 = experiment: microbe, parasite or virus in culture; type: cell-based, Escherichia coli; settings: for MIC of MG1655 under the pressure of the same drug, generation 20 / MIC of MG1655 under the pressure of the same drug, generation 30 / MIC of MG1655 under the pressure of the same drug, generation 40 / MIC of MG1655 under the pressure of the same drug, generation 50 / MIC of MG1655 under the pressure of the same drug, generation 60 / MIC of MG1655 under the pressure of the same drug, generation 70 / MIC of MG1655 under the pressure of the same drug, generation 80 / MIC of MG1655 under the pressure of the same drug, generation 90 / MIC of MG1655 under the pressure of the same drug, generation 100 / MIC of MG1655 under the pressure of the same drug, generation 110 / MIC of MG1655 under the pressure of the same drug, generation 120: as E2; for MIC of MG1655 under the pressure of the same drug, generation primary: broth microdilution (CLSI), primary MG1655 before passage; for MIC of MG1655 under the pressure of the same drug, generation 10: broth microdilution, line passaged in MH broth with sub-inhibitory drug, 12 h per passage, 37℃; for evolution of resistance in MG1655 (in words): MG1655, sub-inhibitory drug in MH broth over 60 days
Description: (§1) The broth microdilution method was used to measure the MIC values of antibiotics and peptides according to the Clinical and Laboratory Standards Institute guidelines. The MIC value is defined as the lowest drug concentration without visible bacteria.
Eight antibiotics and ten AMPs at the sub-inhibitory concentration were prepared. A 300-µL system, including 260 µL of MH broth, 30 µL of prepared drug, and 10 µL of bacterial culture, was used for resistance passages. After 12 h of incubation at 37℃ and 200 rpm, 10 µL of the above bacterial culture was added into the new sterile drug-containing broth. MIC values of bacterial culture were determined. The drug concentration was adjusted according to the MIC value change until the end of the 120 passages.

AMP120 (evolved MG1655) = experiment: microbe, parasite or virus in culture; type: cell-based, Escherichia coli; settings: for MIC values of evolved MG1655, strain AMP120: broth microdilution, ampicillin-evolved strain
Description: (§2) To ensure the stable resistance evolution and inheritance of MG1655 under different drugs, we randomly selected three monoclonals from the evolved strains. The final antibiotic-evolved strains were designated as AMP120, AZI120, CHL80, CIP120, DOX120, KAN80, NIT70, and TMP30, while the final AMP-evolved strains were named COL120, Ind120, Omi120, Pex120, PGLA120, Pleu120, R8120, SAAP120, LI120, and SLAP120.
as §1

AZI120 (evolved MG1655) = experiment: microbe, parasite or virus in culture; type: cell-based, Escherichia coli; settings: broth microdilution; azithromycin-evolved strain
Description: as §2, §1

CHL80 (evolved MG1655) = experiment: microbe, parasite or virus in culture; type: cell-based, Escherichia coli; settings: broth microdilution; chloramphenicol-evolved strain
Description: as §2, §1

CIP120 (evolved MG1655) = experiment: microbe, parasite or virus in culture; type: cell-based, Escherichia coli; settings: broth microdilution; ciprofloxacin-evolved strain
Description: as §2, §1

COL120 (evolved MG1655) = experiment: microbe, parasite or virus in culture; type: cell-based, Escherichia coli; settings: broth microdilution; colistin-evolved strain
Description: as §2, §1

DOX120 (evolved MG1655) = experiment: microbe, parasite or virus in culture; type: cell-based, Escherichia coli; settings: broth microdilution; doxycycline-evolved strain
Description: as §2, §1

KAN80 (evolved MG1655) = experiment: microbe, parasite or virus in culture; type: cell-based, Escherichia coli; settings: broth microdilution; kanamycin-evolved strain
Description: as §2, §1

NIT70 (evolved MG1655) = experiment: microbe, parasite or virus in culture; type: cell-based, Escherichia coli; settings: broth microdilution; nitrofurantoin-evolved strain
Description: as §2, §1

TMP30 (evolved MG1655) = experiment: microbe, parasite or virus in culture; type: cell-based, Escherichia coli; settings: broth microdilution; trimethoprim-evolved strain
Description: as §2, §1

| Compound | MIC of MG1655 under the pressure of the same drug, generation 20 (E. coli K-12 MG1655) [mg/L] | MIC of MG1655 under the pressure of the same drug, generation 30 (E. coli K-12 MG1655) [mg/L] | MIC of MG1655 under the pressure of the same drug, generation 40 (E. coli K-12 MG1655) [mg/L] | MIC of MG1655 under the pressure of the same drug, generation 50 (E. coli K-12 MG1655) [mg/L] | MIC of MG1655 under the pressure of the same drug, generation 60 (E. coli K-12 MG1655) [mg/L] | MIC of MG1655 under the pressure of the same drug, generation 70 (E. coli K-12 MG1655) [mg/L] | MIC of MG1655 under the pressure of the same drug, generation 80 (E. coli K-12 MG1655) [mg/L] | MIC of MG1655 under the pressure of the same drug, generation 90 (E. coli K-12 MG1655) [mg/L] | MIC of MG1655 under the pressure of the same drug, generation 100 (E. coli K-12 MG1655) [mg/L] | MIC of MG1655 under the pressure of the same drug, generation 110 (E. coli K-12 MG1655) [mg/L] | MIC of MG1655 under the pressure of the same drug, generation 120 (E. coli K-12 MG1655) [mg/L] | MIC of MG1655 under the pressure of the same drug, generation primary (E. coli K-12 MG1655) [mg/L] | MIC of MG1655 under the pressure of the same drug, generation 10 (E. coli K-12 MG1655) [mg/L] | MIC values of evolved MG1655, strain AMP120 (AMP120 (evolved MG1655)) [mg/L] | MIC values of evolved MG1655, strain AZI120 (AZI120 (evolved MG1655)) [mg/L] | MIC values of evolved MG1655, strain CHL80 (CHL80 (evolved MG1655)) [mg/L] | MIC values of evolved MG1655, strain CIP120 (CIP120 (evolved MG1655)) [mg/L] | MIC values of evolved MG1655, strain COL120 (COL120 (evolved MG1655)) [mg/L] | MIC values of evolved MG1655, strain DOX120 (DOX120 (evolved MG1655)) [mg/L] | MIC values of evolved MG1655, strain KAN80 (KAN80 (evolved MG1655)) [mg/L] | also measured |
| --- | --- | --- | --- | --- | --- | --- | --- | --- | --- | --- | --- | --- | --- | --- | --- | --- | --- | --- | --- | --- | --- |
| OO [H2O2, hydrogen peroxide] | – | – | – | – | – | – | – | – | – | – | – | – | – | – | – | – | – | – | – | – | survival rate of all strains after H2O2 treatment [1]: lower than 1% |
| CC(C)C[C@H](NC(=O)[C@H](CCCCN)NC(=O)[C@H](Cc1ccccc1)NC(=O)[C@@H](NC(=O)[C@H](CCCCN)NC(=O)CNC(=O)[C@H](CC(C)C)NC(=O)[C@@H](N)Cc1ccccc1)C(C)C)C(=O)N[C@@H](C)C(=O)N[C@@H](CO)C(=O)N[C@@H](CCCCN)C(=O)N[C@H](C(=O)N[C@@H](Cc1ccccc1)C(=O)N[C@@H](CCCCN)C(=O)N[C@@H](C)C(=O)N[C@H](C(=O)N[C@@H](Cc1ccccc1)C(=O)NCC(=O)N[C@@H](CCCCN)C(=O)N[C@H](C(=O)O)C(C)C)C(C)C)C(C)C [R8] (H-FLGKVFKLASKVFKAVFGKV-OH) | 4 | 4 | 4 | 4 | 4 | 4 | 4 | 4 | 4 | 8 | 8 | 4 | 4 | 4 | 8 | 8 | 8 | 4 | 8 | 4 | MIC values of evolved MG1655, strain NIT70 (NIT70 (evolved MG1655)): 8 mg/L; MIC values of evolved MG1655, strain TMP30 (TMP30 (evolved MG1655)): 8 mg/L |
| AC-Dab-Ile-Dab-Ile-Dab-D-Phe-Leu-Dab-D-Val-Leu-Ala-NH2 [SLAP, SLAP-S25, short-linear AMP] | 8 | 8 | 8 | 16 | 16 | 16 | 32 | 32 | 32 | 64 | 64 | 4 | 4 | 1 | 32 | 2 | 2 | 8 | 2 | 2 | evolution of resistance in MG1655 (in words) (E. coli K-12 MG1655): marginal increase in resistance; collateral sensitivity of AMP120 (fold change of MIC vs wild-type MG1655) (AMP120 (evolved MG1655); MIC of AMP120 compared with MG1655): exceeding fourfold; MIC values of evolved MG1655, strain NIT70 (NIT70 (evolved MG1655)): 2 mg/L; MIC values of evolved MG1655, strain TMP30 (TMP30 (evolved MG1655)): 4 mg/L |
| Fatty acyl-Dab-Thr-Dab-Dab-Dab-D-Leu-Leu-Dab-Dab-Thr [COL, Colistin, cationic lipopeptide antibiotic (polymyxin), source microorganism] | 0.125 | 0.25 | 0.25 | 0.5 | 0.5 | 0.5 | 0.5 | 0.5 | 0.5 | 0.5 | 0.5 | 0.125 | 0.125 | 0.5 | 0.5 | 0.25 | 0.5 | 0.5 | 0.25 | 0.5 | evolution of resistance in MG1655 (in words) (E. coli K-12 MG1655): marginal increase in resistance; MIC values of evolved MG1655, strain NIT70 (NIT70 (evolved MG1655)): 0.5 mg/L; MIC values of evolved MG1655, strain TMP30 (TMP30 (evolved MG1655)): 0.5 mg/L |
